# Measurements as given in US20060035925A1, “SUBSTITUTED 4H-CHROMENES AND ANALOGS AS ACTIVATORS OF CASPASES AND INDUCERS OF APOPTOSIS AND THE USE THEREOF” (Cytovia, Inc., priority 1999, published 2006).
# Read-outs that look alike come from different tables or passages of the source.
# Legend:
# [1] = test system: Human breast cancer cell line ZR-75-1; experiment: Caspase cascade activation assay (N-(Ac-DEVD)-N'-ethoxycarbonyl-R110 fluorogenic substrate) in ZR-75-1 cells; assay type: cell-based; conditions: ZR-75-1 cells; for EC50: 24 h incubation, sigmoidal dose-response, read-out: Caspase potency EC50 (nM) ZR-75-1; for Caspase activity (Ratio) ZR-75-1: 24 h incubation with compound, ratio of net RFU (T=3 h) of test compound to control
# Protocol: (§1) Human breast cancer cell lines T-47D and ZR-75-1 were grown according to media component mixtures designated by American Type Culture Collection +10% FCS (Invitrogen Corporation), in a 5% CO2-95% humidity incubator at 37° C. T-47D and ZR-75-1 cells were maintained at a cell density between 30 and 80% confluency at a cell density of 0.1 to 0.6×10^6 cells/ml. Cells were harvested at 600×g and resuspended at 0.65×10^6 cells/mL into appropriate media +10% FCS. An aliquot of 45 μl of cells was added to a well of a 96-well microtiter plate containing 5 μl of a 10% DMSO in RPMI-1640 media solution containing 0.16 to 10 μM of 2-amino-3-cyano-4-(3-bromo-4,5-dimethoxyphenyl)-4H-indolo[7,6-b]pyran (Example 42) or other test compound (0.016 to 1 μM final). An aliquot of 45 μl of cells was added to a well of a 96-well microtiter plate containing 5 μl of a 10% DMSO in RPMI-1640 media solution without test compound as the control sample. The samples were mixed by agitation and then incubated at 37° C. for 24 h in a 5% CO2-95% humidity incubator. After incubation, the samples were removed from the incubator and 50 μl of a solution containing 20 μM of N-(Ac-DEVD)-N′-ethoxycarbonyl-R110 (SEQ ID NO:1) fluorogenic substrate (Cytovia, Inc.; WO99/18856), 20% sucrose (Sigma), 20 mM DTT (Sigma), 200 mM NaCl (Sigma), 40 mM Na PIPES buffer pH 7.2 (Sigma), and 500 μg/ml lysolecithin (Calbiochem) was added. The samples were mixed by agitation and incubated at room temperature. Using a fluorescent plate reader (Model 1420 Wallac Instruments), an initial reading (T=0) was made approximately 1-2 min after addition of the substrate solution, employing excitation at 485 nm and emission at 530 nm, to determine the background fluorescence of the control sample. After the 3 h incubation, the samples were read for fluorescence as above (T=3 h).
# (§2) The Relative Fluorescence Unit values (RFU) were used to calculate the sample readings as follows: RFU(T=3h)−Control RFU(T=0)=Net RFU(T=3h)
# (§3) The activity of caspase cascade activation was determined by the ratio of the net RFU value for 2-amino-3-cyano-4-(3-bromo-4,5-dimethoxyphenyl)-4H-indolo[7,6-b]pyran or other test compound to that of control samples. The EC50 (nM) was determined by a sigmoidal dose-response calculation (Prism 2.0, GraphPad Software Inc.).
# [2] = test system: Human breast cancer cell line T-47D; experiment: Caspase cascade activation assay (N-(Ac-DEVD)-N'-ethoxycarbonyl-R110 fluorogenic substrate) in T-47D cells; assay type: cell-based; conditions: for Caspase activity (Ratio) T-47D: 24 h incubation with compound, ratio of net RFU (T=3 h) of test compound to control; for EC50: 24 h incubation, sigmoidal dose-response, read-out: Caspase potency EC50 (nM) T-47D
# Protocol: as §1, §2, §3
SMILES,"EC50 ([1]; Homo sapiens, ZR-75-1, 24 h) [nM]",Caspase activity (Ratio) ZR-75-1 [1],Caspase activity (Ratio) T-47D [2],"EC50 ([2]; Homo sapiens, T47D, 24 h) [nM]",EC50 [1] [nM],EC50 [2] [nM]
"COc1ccc2c(c1)OC(N)=C(C#N)C2c1cccc(C#N)c1 (stereo not drawn) [Example 5, 2-Amino-3-cyano-7-methoxy-4-(3-cyanophenyl)-4H-chromene]",46,7.1,6.9,37,,
"COc1ccc2c(c1)OC(N)=C(C#N)C2c1cccc(Br)c1 (stereo not drawn) [Example 6, 2-Amino-3-cyano-7-methoxy-4-(3-bromophenyl)-4H-chromene]",30,12.8,6.8,54,,
"CCNc1ccc2c(c1)OC(N)=C(C#N)C2c1cccc(Br)c1 (stereo not drawn) [Example 7, 2-Amino-3-cyano-7-ethylamino-4-(3-bromophenyl)-4H-chromene]",53,10.7,5.4,108,,
"CCNc1ccc2c(c1)OC(N)=C(C#N)C2c1cccc(Cl)c1 (stereo not drawn) [Example 8, 2-Amino-3-cyano-7-ethylamino-4-(3-chlorophenyl)-4H-chromene]",62,10.1,8.5,126,,
"CCNc1ccc2c(c1)OC(N)=C(C#N)C2c1cccc([N+](=O)[O-])c1 (stereo not drawn) [Example 9, 2-Amino-3-cyano-7-ethylamino-4-(3-nitrophenyl)-4H-chromene]",50,12.8,7.6,116,,
"COc1ccc2c(c1)OC(N)=C(C#N)C2c1cccc(Cl)c1 (stereo not drawn) [Example 10, 2-Amino-3-cyano-7-methoxy-4-(3-chlorophenyl)-4H-chromene]",36,9.0,6.1,48,,
"COc1ccc2c(c1)OC(N)=C(C#N)C2c1cccc([N+](=O)[O-])c1 (stereo not drawn) [Example 11, 2-Amino-3-cyano-7-methoxy-4-(3-nitrophenyl)-4H-chromene]",28,6.6,4.5,45,,
"COc1cc(OC)cc(C2C(C#N)=C(N)Oc3cc(OC)ccc32)c1 (stereo not drawn) [Example 12, 2-Amino-3-cyano-7-methoxy-4-(3,5-dimethoxyphenyl)-4H-chromene]",9,6.7,6.1,14,,
"CCNc1ccc2c(c1)OC(N)=C(C#N)C2c1cc(OC)c(OC)c(OC)c1 (stereo not drawn) [Example 13, 2-Amino-3-cyano-7-ethylamino-4-(3,4,5-trimethoxyphenyl)-4H-chromene]",14,7.0,4.4,25,,
"CCNc1ccc2c(c1)OC(N)=C(C#N)C2c1cc(OC)cc(OC)c1 (stereo not drawn) [Example 14, 2-Amino-3-cyano-7-ethylamino-4-(3,5-dimethoxyphenyl)-4H-chromene]",10,7.7,7,10,,
"CCNc1ccc2c(c1)OC(N)=C(C#N)C2c1cccc(OC)c1 (stereo not drawn) [Example 15, 2-Amino-3-cyano-7-ethylamino-4-(3-methoxyphenyl)-4H-chromene]",4,6.3,5.9,7,,
"CCNc1ccc2c(c1)OC(N)=C(C#N)C2c1cccc(C#N)c1 (stereo not drawn) [Example 16, 2-Amino-3-cyano-7-ethylamino-4-(3-cyanophenyl)-4H-chromene]",6,6.7,7,11,,
"COc1ccc2c(c1)OC(N)=C(C#N)C2c1cccnc1 (stereo not drawn) [Example 17, 2-Amino-3-cyano-7-methoxy-4-(3-pyridyl)-4H-chromene]",147,8.2,5.9,254,,
"N#CC1=C(N)OC2C3=CC=NC3=CC=C2C1c1cccnc1 (stereo not drawn) [Example 18, 2-Amino-3-cyano-4-(3-pyridyl)-4H-indolo[4,5-b]pyran]",38,8.8,9.0,56,,
"N#CC1=C(N)Oc2cc(N)ccc2C1c1cccc(Br)c1 (stereo not drawn) [Example 19, 2,7-Diamino-3-cyano-4-(3-bromophenyl)-4H-chromene]",206,9.2,5.9,274,,
"N#CC1=C(N)Oc2cc(N)ccc2C1c1cccc(C#N)c1 (stereo not drawn) [Example 20, 2,7-Diamino-3-cyano-4-(3-cyanophenyl)-4H-chromene]",58,5.2,4.0,120,,
"COc1cccc(C2C(C#N)=C(N)Oc3cc(N)ccc32)c1 (stereo not drawn) [Example 21, 2,7-Diamino-3-cyano-4-(3-methoxyphenyl)-4H-chromene]",562,9.2,6.0,697,,
"N#CC1=C(N)Oc2cc(N)ccc2C1c1cccc(Cl)c1 (stereo not drawn) [Example 22, 2,7-Diamino-3-cyano-4-(3-chlorophenyl)-4H-chromene]",2480,8.0,5.8,4800,,
"Cc1cccc(C2C(C#N)=C(N)Oc3cc(N)ccc32)c1 (stereo not drawn) [Example 23, 2,7-Diamino-3-cyano-4-(3-methylphenyl)-4H-chromene]",102,5.2,4.6,146,,
"N#CC1=C(N)Oc2cc(N)ccc2C1c1cccnc1 (stereo not drawn) [Example 24, 2,7-Diamino-3-cyano-4-(3-pyridyl)-4H-chromene]",> 10000,<2,<2,> 10000,,
"N#CC1=C(N)Oc2cc(N)ccc2C1c1cccc([N+](=O)[O-])c1 (stereo not drawn) [Example 25, 2,7-Diamino-3-cyano-4-(3-nitrophenyl)-4H-chromene]",325,9.7,6.1,463,,
"COc1ccc2c(c1)OC(N)=C(C#N)C2c1ccccc1 (stereo not drawn) [Example 26, 2-Amino-3-cyano-7-methoxy-4-phenyl-4H-chromene]",82,6.4,3.5,140,,
"COc1ccc2c(c1)OC(N)=C(C#N)C2C1CC=CCC1 (stereo not drawn) [Example 28, 2-Amino-3-cyano-7-methoxy-4-(1,2,3,6-tetrahydrophenyl)-4H-chromene]",154,5.2,3.4,158,,
"N#CC1=C(N)Oc2ccccc2C1c1ccccc1 (stereo not drawn) [Example 29, 2-Amino-3-cyano-4-phenyl-4-H-chromene]",,<2,<2,,> 10000,> 10000
"COc1ccc2c(c1)OC(N)=C(C#N)C2c1cncc(C)c1 (stereo not drawn) [Example 30, 2-Amino-3-cyano-7-methoxy-4-(5-methyl-3-pyridyl)-4H-chromene]",14,13.2,7.5,24,,
"CCNc1ccc2c(c1)OC(N)=C(C#N)C2c1cncc(C)c1 (stereo not drawn) [Example 31, 2-Amino-3-cyano-7-ethylamino-4-(5-methyl-3-pyridyl)-4H-chromene]",12,11.0,7.9,27,,
"CCNc1ccc2c(c1)OC(N)=C(C#N)C2c1cncc(Br)c1 (stereo not drawn) [Example 32, 2-Amino-3-cyano-4-(5-bromo-3-pyridyl)-7-ethylamino-4H-chromene]",4,9.5,7.2,17,,
